Experimental data taken from US9695155B2, “Herbicidal substituted pyrimidinyloxy benzene compounds” (E. I. DU PONT DE NEMOURS AND COMPANY, priority 2013, dated 2017).

What was measured:
Italian ryegrass = experiment: Test C postemergence; format: in vivo, Lolium multiflorum; settings: for Plant response rating, Ryegrass, Italian: Postemergence, scale 0 to 100 (0 no effect, 100 complete control)
Source text: (§1) Seeds of plant species selected from blackgrass (Alopecurus myosuroides), Italian ryegrass (Lolium multiflorum), wheat, winter (winter wheat, Triticum aestivum), galium (catchweed bedstraw, Galium aparine), corn (Zea mays), large (Lg) crabgrass (Digitaria sanguinalis), giant foxtail (Setaria faberii), johnsongrass (Sorghum halepense), lambsquarters (Chenopodium album), morningglory (Ipomoea coccinea), yellow nutsedge (Cyperus esculentus), pigweed (Amaranthus retroflexus), ragweed (common ragweed, Ambrosia elatior), soybean (Glycine max), barnyardgrass (Echinochloa crus-galli), oilseed rape (Brassica napus), waterhemp (common waterhemp, Amaranthus rudis), kochia (Kochia scoparia), wild oat (Avena fatua), surinam grass (Brachiaria decumbens), foxtail, green (green foxtail, Setaria viridis), goosegrass (Eleusine indica), bromegrass, downy (downy bromegrass, Bromus tectorum), nightshade (eastern black nightshade, Solanum ptycanthum), cocklebur (common cocklebur, Xanthium strumarium), cupgrass, woolly (woolly cupgrass, Eriochloa villosa), bermudagrass (Cynodon dactylon), sunflower, (common oilseed sunflower, Helianthus annuus), Russian thistle (Salsola kali), and velvetleaf (Abutilon theophrasti) were planted into a blend of loam soil and sand and treated preemergence with test chemicals formulated in a non-phytotoxic solvent mixture which included a surfactant.
(§2) At the same time, plants selected from these crop and weed species and also barley, winter (winter barley, Hordeum vulgare), windgrass (Apera spica-venti), chickweed (common chickweed, Stellaria media), deadnettle (henbit deadnettle, Lamium amplexicaule), and canarygrass (littleseed canarygrass, Phalaris minor) were planted in pots containing Redi-Earth® planting medium (Scotts Company, 14111 Scottslawn Road, Marysville, Ohio 43041) comprising spaghnum peat moss, vermiculite, wetting agent and starter nutrients and treated with postemergence applications of test chemicals formulated in the same manner. Plants ranged in height from 2 to 18 cm (1- to 4-leaf stage) for postemergence treatments. Treated plants and controls were maintained in a greenhouse for 13 to 15 days, after which time all species were compared to controls and visually evaluated. Plant response ratings, summarized in Table C, are based on a scale of 0 to 100 where 0 is no effect and 100 is complete control. A dash (-) response means no test result.

ragweed = experiment: Test C postemergence; format: in vivo, Ambrosia elatior; settings: for Plant response rating, Ragweed: Postemergence, scale 0 to 100 (0 no effect, 100 complete control)
Source text: as §1, §2

soybean = experiment: Test C preemergence; format: in vivo, Glycine max; settings: for Soybean plant response rating: preemergence
Procedure, shortened: (§3)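 Preemergence: seeds sown in a loam soil–sand blend and sprayed with test chemical in a non-phytotoxic solvent mixture containing surfactant. Postemergence: plants at 2 to 18 cm (1- to 4-leaf stage) in peat-based medium, treated with the same formulation. Greenhouse 13 to 15 days, then visual rating 0 (no effect) to 100 (complete control).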

velvetleaf = experiment: Test C preemergence; format: in vivo, Abutilon theophrasti; settings: for Velvetleaf plant response rating: preemergence
Procedure, shortened: as §3

lambsquarters = experiment: Test C postemergence; format: in vivo, Chenopodium album; settings: for Plant response rating, Lambsquarters: Postemergence, scale 0 to 100 (0 no effect, 100 complete control)
Source text: as §1, §2

pigweed [1] = experiment: Test C preemergence; format: in vivo, Amaranthus retroflexus; settings: for Pigweed plant response rating: preemergence
Procedure, shortened: as §3

yellow nutsedge = experiment: Test C preemergence; format: in vivo, Cyperus esculentus; settings: for Nutsedge, Yellow plant response rating: preemergence
Procedure, shortened: as §3

wild oat = experiment: Test C postemergence; format: in vivo, Avena fatua; settings: for Plant response rating, Oat, Wild: Postemergence, scale 0 to 100 (0 no effect, 100 complete control)
Source text: as §1, §2

blackgrass = experiment: Test C postemergence; format: in vivo, Alopecurus myosuroides; settings: for Plant response rating, Blackgrass: Postemergence
Source text: as §1, §2

pigweed [2] = experiment: Test C postemergence; format: in vivo, Amaranthus retroflexus; settings: for Plant response rating, Pigweed: Postemergence, scale 0 to 100 (0 no effect, 100 complete control)
Source text: as §1, §2

wheat, winter = experiment: Test C postemergence; format: in vivo, Triticum aestivum; settings: for Plant response rating, Wheat: Postemergence, scale 0 to 100 (0 no effect, 100 complete control)
Source text: as §1, §2

rice = experiment: Test B flooded paddy test; format: in vivo, Oryza sativa; settings: Flood, 250 g ai/ha; 0 to 100 scale where 0 is no effect and 100 is complete control
Procedure, shortened: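 Plants were grown to the 2-leaf stage, then pots were flooded to 3 cm above the soil and compounds were applied directly into the paddy water. That depth was held throughout, and after 13 to 15 days in the greenhouse injury was rated visually against controls on a 0–100 scale (0 no effect, 100 complete control).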

giant foxtail = experiment: Test A preemergence; format: in vivo, Setaria faberii
Procedure, shortened: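 Visual 0–100 rating (100 = complete control) taken about 10 d post-treatment relative to untreated checks. Preemergence: directed soil spray on sown loam/sand pots. Postemergence: seedlings 2–10 cm, 1–2 leaf. Non-phytotoxic solvent formulation with surfactant.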

[3] = 16 g ai/ha, scale 0 to 100 (0 no effect, 100 complete control)
[4] = 62 g ai/ha, scale 0 (no effect) to 100 (complete control)
[5] = 125 g ai/ha, scale 0 (no effect) to 100 (complete control)
[6] = Preemergence, 31 g ai/ha, scale 0 to 100, 0 no effect, 100 complete control

Structure (SMILES): CCOc1cn(-c2c(Br)cccc2Oc2ncc(Cl)cn2)nn1 [Compound 84]
- Plant response rating (0 to 100), Ryegrass, Italian (Italian ryegrass; 125 g ai/ha, postemergence): 0
- Plant response rating, Ryegrass, Italian (Italian ryegrass; 31 g ai/ha, 13 to 15 days): 0
- Plant response rating, Ryegrass, Italian (Italian ryegrass; 62 g ai/ha): 0
- Plant response rating (0 to 100), Ragweed (ragweed; 125 g ai/ha, postemergence): 80
- Plant response rating, Ragweed (ragweed; 31 g ai/ha, 13 to 15 days): 10
- Plant response rating, Ragweed (ragweed; 62 g ai/ha): 40
- Soybean plant response rating (soybean; [3]): 0
- Soybean plant response rating (soybean; [4]): 60
- Soybean plant response rating (soybean; [5]): 70
- Plant response rating, Soybean (soybean; [6]): 20
- Velvetleaf plant response rating (velvetleaf; [3]): 50
- Velvetleaf plant response rating (velvetleaf; [4]): 85
- Velvetleaf plant response rating (velvetleaf; [5]): 100
- Plant response rating, Velvetleaf (velvetleaf; [6]): 60
- Plant response rating (0 to 100), Lambsquarters (lambsquarters; 125 g ai/ha, postemergence): 80
- Plant response rating, Lambsquarters (lambsquarters; 31 g ai/ha, 13 to 15 days): 30
- Plant response rating, Lambsquarters (lambsquarters; 62 g ai/ha): 55
- Pigweed plant response rating (pigweed [1]; [3]): 85
- Pigweed plant response rating (pigweed [1]; [4]): 100
- Pigweed plant response rating (pigweed [1]; [5]): 100
- Plant response rating, Pigweed (pigweed [1]; [6]): 100
- Nutsedge, Yellow plant response rating (yellow nutsedge; [3]): 0
- Nutsedge, Yellow plant response rating (yellow nutsedge; [4]): 5
- Nutsedge, Yellow plant response rating (yellow nutsedge; [5]): 40
- Plant response rating, Nutsedge, Yellow (yellow nutsedge; [6]): 0
- Plant response rating (0 to 100), Oat, Wild (wild oat; 125 g ai/ha, postemergence): 15
- Plant response rating, Oat, Wild (wild oat; 31 g ai/ha, 13 to 15 days): 0
- Plant response rating, Oat, Wild (wild oat; 62 g ai/ha): 5
- Blackgrass plant response rating (blackgrass; 16 g ai/ha, postemergence, visual rating, scale 0 to 100 (0 no effect, 100 complete control), 13 to 15 days): 5
- Plant response rating (0 to 100), Blackgrass (blackgrass; 125 g ai/ha, postemergence): 20
- Plant response rating, Blackgrass (blackgrass; 31 g ai/ha, scale 0 to 100 (0 no effect, 100 complete control), 13 to 15 days): 5
- Plant response rating, Blackgrass (blackgrass; 62 g ai/ha, scale 0 to 100 (0 no effect, 100 complete control)): 5
- Plant response rating (0 to 100), Pigweed (pigweed [2]; 125 g ai/ha, postemergence): 85
- Plant response rating, Pigweed (pigweed [2]; 31 g ai/ha, 13 to 15 days): 50
- Plant response rating, Pigweed (pigweed [2]; 62 g ai/ha): 80
- Plant response rating (0 to 100), Wheat (wheat, winter; 125 g ai/ha, postemergence): 0
- Plant response rating, Wheat (wheat, winter; 31 g ai/ha, 13 to 15 days): 0
- Plant response rating, Wheat (wheat, winter; 62 g ai/ha): 0
- Plant response rating, Rice (rice): 0
- Plant response rating, Foxtail, Giant (giant foxtail; 125 g ai/ha, 0 to 100 scale where 0 is no effect and 100 is complete control): 70
- Foxtail, Giant plant response rating (giant foxtail; 500 g ai/ha, 0 to 100 scale, 0 no effect, 100 complete control, approx. 10 days): 100
